Data from patent publication US20060058312A1, “Stabilized aqueous preparation for injection” (priority 2004, published 2006).

Tests used:
[1] = Stability test at 60° C., addition amount of ascorbic acid at pH 8.7 (Example 5), HPLC content; type: physicochemical; conditions: for remaining calcium levofolinate content compared with the initial value (100): 60° C.
Method: For the aqueous preparations obtained in (1) to (3) above, tests evaluating stability at 60° C./3 weeks were performed. The calcium levofolinate content remaining in the aqueous solution was measured using high performance liquid chromatography under the following conditions (the same were employed in the following experiments) 2 ml each of the test preparations were weighed, and 10 ml of the internal standard solution described below (the same was employed in the following experiments) were added thereto. Subsequently, water was added to adjust the total volume of the solution to 50 ml, thereby to prepare a test solution. Meanwhile, 62.5 mg of calcium levofolinate were dissolved in water so as to prepare a 25 ml solution. Then, to 10 ml of the resultant solution were added 10 ml of the internal standard solution, and the total volume of the solution was adjusted to 50 ml by adding water, thereby to prepare a standard solution. For 20 μl of the standard solution and the test solution, the content of calcium levofolinate was measured by the liquid chromatography method under the following conditions.
1) Measurement Conditions • Detector: Ultraviolet absorptiometer (Measurement wavelength: 254 nm) • Column: A stainless tube having an internal diameter of 4.0 mm and a length of 15 cm was filled with 5 μm of octadecylsilylated silica gel for liquid chromatography. • Column temperature: A constant temperature near 45° C. • Mobile phase: The pH value of a mixed test solution containing 0.008 mol/L of disodium hydrogen phosphate solution/methanol/40% aqueous tetrabutylammonium hydroxide solution (385:110:1.3 (volume ratio)) was adjusted to 7.5 by adding phosphoric acid. • Flow rate: The flow rate was regulated so that the retention time of calcium levofolinate became about 10 minutes. • Internal standard solution: A solution prepared by adding water to 0.04 g of methyl parahydroxybenzoate so that the whole amount of solution is 100 ml.
About 80 ml of water for injection were added to a beaker (volume: 200 ml). Then, 0.56 g of sodium chloride, 0.3 g of tromethamine, and 1.375 g of calcium levofolinate (1.1 g, in terms of 5-formyl-(6S)-tetrahydrofolic acid) were added to it with bubbling of nitrogen gas, and the components were dissolved with stirring (this procedure was performed 5 times). Subsequently, 0.05 g, 0.075 g, 0.1 g, 0.2 g, or 0.3 g of ascorbic acid was added to each solution, and was dissolved with stirring, to prepare five solutions. Thereafter, in the case where the addition amount of ascorbic acid is 0.05 g, 0.075 g, or 0.1 g, the pH value of each solution was regulated to 8.7 by adding 5% hydrochloric acid. In the case where the addition amount of ascorbic acid is 0.2 g, or 0.3 g, the pH value of each solution was regulated to 8.7 by adding 1% aqueous sodium hydroxide solution dropwise. Water for injection was further added to each solution to adjust the total volume of the solution to 100 ml. Subsequently, the bubbling of nitrogen gas was stopped, and each solution was filtered with a filtration filter, thereby to yield a solution for injection. Subsequently, each of five 5 ml-glass ampules the inside space of which had been substituted by nitrogen gas, was filled with 5 ml of the resultant solution for injection, and was sealed by heating.
For each aqueous preparation obtained as above, a test evaluating stability at 60° C. was performed by measuring the remaining calcium levofolinate content by the high performance liquid chromatography method.

[2] = Content during storage of the preparation of the present invention; type: physicochemical; conditions: storage at 40° C./4 months (equivalent to 25° C./2 years)
Excerpt: In the preparation of the present invention, the pH value of the aqueous preparation is most desirably 6 to 7, the antioxidant is a combination of ascorbic acid with sodium pyrosulfite, and the concentration of the antioxidant is 0.1 to 0.3 w/v %. However, in the case where the concentration of sodium pyrosulfite is not less than 0.2 w/v %, precipitants form in the aqueous preparation. The preparation of the present invention is desirably included in an inner container, e.g., a syringe in a double package form which comprises an inner container and an outer bag, where a deoxidant (oxygen absorber) is placed between the inner container and the outer bag. The preparation of the present invention can be used as a pharmaceutical. The content of calcium salt of 5-formyl-(6S)-tetrahydrofolic acid (i.e. calcium levofolinate) is 90% or more during storage at 40° C./4 months (this condition is equivalent to 25° C./2 years)

remaining calcium levofolinate content compared with the initial value (100) ([1]; ascorbic acid 0.05%, 1 month): 84.5
remaining calcium levofolinate content compared with the initial value (100) ([1]; ascorbic acid 0.05%, 1 week): 97.0
remaining calcium levofolinate content compared with the initial value (100) ([1]; ascorbic acid 0.05%, 2 weeks): 92.1
remaining calcium levofolinate content compared with the initial value (100) ([1]; ascorbic acid 0.05%, 3 weeks): 90.3
calcium levofolinate content, Initial value (100) ([1]; ascorbic acid 0.05%): 100
remaining calcium levofolinate content compared with the initial value (100) ([1]; ascorbic acid 0.075%, 1 month): 85.7
remaining calcium levofolinate content compared with the initial value (100) ([1]; ascorbic acid 0.075%, 1 week): 97.1
remaining calcium levofolinate content compared with the initial value (100) ([1]; ascorbic acid 0.075%, 2 weeks): 91.5
remaining calcium levofolinate content compared with the initial value (100) ([1]; ascorbic acid 0.075%, 3 weeks): 90.9
calcium levofolinate content, Initial value (100) ([1]; ascorbic acid 0.075%): 100
remaining calcium levofolinate content compared with the initial value (100) ([1]; ascorbic acid 0.1%, 1 month): 84.9
remaining calcium levofolinate content compared with the initial value (100) ([1]; ascorbic acid 0.1%, 1 week): 97.3
remaining calcium levofolinate content compared with the initial value (100) ([1]; ascorbic acid 0.1%, 2 weeks): 92.2
remaining calcium levofolinate content compared with the initial value (100) ([1]; ascorbic acid 0.1%, 3 weeks): 89.3
calcium levofolinate content, Initial value (100) ([1]; ascorbic acid 0.1%): 100
remaining calcium levofolinate content compared with the initial value (100) ([1]; ascorbic acid 0.2%, 1 month): 83.4
remaining calcium levofolinate content compared with the initial value (100) ([1]; ascorbic acid 0.2%, 1 week): 96.6
remaining calcium levofolinate content compared with the initial value (100) ([1]; ascorbic acid 0.2%, 2 weeks): 91.5
remaining calcium levofolinate content compared with the initial value (100) ([1]; ascorbic acid 0.2%, 3 weeks): 88.6
calcium levofolinate content, Initial value (100) ([1]; ascorbic acid 0.2%): 100
remaining calcium levofolinate content compared with the initial value (100) ([1]; ascorbic acid 0.3%, 1 month): 82.0
remaining calcium levofolinate content compared with the initial value (100) ([1]; ascorbic acid 0.3%, 1 week): 96.1
remaining calcium levofolinate content compared with the initial value (100) ([1]; ascorbic acid 0.3%, 2 weeks): 90.5
remaining calcium levofolinate content compared with the initial value (100) ([1]; ascorbic acid 0.3%, 3 weeks): 87.7
calcium levofolinate content, Initial value (100) ([1]; ascorbic acid 0.3%): 100
content of calcium levofolinate during storage [2]: ≥ 90%
SMILES: Nc1nc(=O)c2c([nH]1)NC[C@H](CNc1ccc(C(=O)N[C@@H](CCC(=O)O)C(=O)O)cc1)N2C=O [calcium levofolinate, (6S)-N-[4-[[(2-amino-5-formyl-1,4,5,6,7,8-hexahydro-4-oxo-6-pteridinyl)methyl]amino]benzoyl]-L-glutamic acid]
